Key:
BALB/c mice [1] = experiment: Passive cutaneous anaphylaxis (PCA); format: in vivo; design: unit not given here; settings: local intradermal injection in the ear
Procedure: (§1) Finally, to extend these observations to mast cell functions in vivo, the inventors tested the effects of C-13 on passive systemic (PSA) and cutaneous anaphylaxis (PCA) induced in BALB/c mice by administering DNP-specific IgE molecules followed by intravenous stimulation with DNP-KLH hapten. […] The intensity of systemic anaphylaxis was determined by measuring both the drop in body temperature and the increase in vascular permeability following antigen administration.
(§2) • 1) Chemical products and antibodies. A chemical bank of 3000 molecules (a varied subset) was acquired from ChemBridge, Inc. (San Diego, Calif.). Stocks of solutions of small molecules were prepared at a rate of 10 mM in DMSO (dimethylsulphoxide), except for C-13 (methyl 2-{5-[(3-benzyl-4-oxo-2-thioxo-1,3-thiazolidin-5-ylidene)methyl]-2-furyl}benzoate, ChemBridge ID No. 6197026) prepared in DMF (dimethylformamide). Unless specified otherwise, all the reagents were supplied by Sigma. […] The binding of G4G11 with Syk was assessed by adding the 9E10 monoclonal antibody conjugated with HRP detecting the amino acid sequence EQKLISEEDLN of human c-myc protein located at the C-terminal end of the scFv fragment. To generate Syk mutants, targeted mutagenesis was used on GST:Syk 6-242 protein and the binding of G4G11 with the mutants was assessed in the presence of 5 μM of C-13. • 3) Cells, culture conditions and functional tests. […]

BALB/c mice [2] = experiment: IgE-induced passive systemic anaphylaxis (PSA); format: in vivo
Procedure: as §1, §2

Syk = target: T1, Syk (Rattus norvegicus, UniProt Q64725); experiment: Phosphorylation and FcεRI-induced kinase activity of Syk in RBL-2H3 cells; format: cell-based
T1 construct: endogenous in cells; host or cells: RBL-2H3
T1 sequence (Q64725 whole entry): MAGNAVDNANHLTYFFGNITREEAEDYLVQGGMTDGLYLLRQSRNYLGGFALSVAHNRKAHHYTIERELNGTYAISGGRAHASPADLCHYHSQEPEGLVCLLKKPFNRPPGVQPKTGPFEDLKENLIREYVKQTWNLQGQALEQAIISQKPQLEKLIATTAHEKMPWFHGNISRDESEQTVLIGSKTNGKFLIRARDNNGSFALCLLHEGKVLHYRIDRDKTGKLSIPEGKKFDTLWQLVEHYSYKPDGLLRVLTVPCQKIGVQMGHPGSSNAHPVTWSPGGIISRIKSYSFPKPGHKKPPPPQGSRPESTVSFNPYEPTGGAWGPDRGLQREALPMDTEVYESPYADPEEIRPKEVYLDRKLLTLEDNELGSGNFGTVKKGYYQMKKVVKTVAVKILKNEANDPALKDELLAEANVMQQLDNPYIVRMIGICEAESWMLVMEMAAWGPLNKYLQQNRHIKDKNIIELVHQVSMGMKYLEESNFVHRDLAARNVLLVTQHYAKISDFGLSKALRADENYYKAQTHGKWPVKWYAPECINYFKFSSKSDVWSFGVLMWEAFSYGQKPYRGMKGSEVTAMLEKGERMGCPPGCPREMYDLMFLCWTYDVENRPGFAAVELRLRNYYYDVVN

RBL-2H3 cells = experiment: FACS analysis of IgE-dependent calcium flow; format: cell-based, rat; settings: mast cells
Procedure: FIG. 3. C-13 inhibits FcεRI-dependent calcium release and degranulation. A. FACS analysis of IgE-dependent calcium flow in RBL-2H3 cells. B. Release of β-hexosaminidase in RBL-2H3 cells sensitised with IgE/DNP. C. Release of β-hexosamlnidase and, D. titration of TNF-α in BMMCs cells sensitised with IgE/DNP; C-13: 3 μM. E. FACS analysis of FCεRI surface expression in RBL-2H3 cells. (0=0.25% DMF). Significant inhibition with C-13 versus DMF: **P<0.01 and *P<0.05.
Binding of Btk and Vav with SLP-76 is critical for regulating PLC-γ activity on the membrane, calcium mobilisation and granule exocytosis^27, 28.
• 1) Chemical products and antibodies. A chemical bank of 3000 molecules (a varied subset) was acquired from ChemBridge, Inc. (San Diego, Calif.). […] The binding of G4G11 with Syk was assessed by adding the 9E10 monoclonal antibody conjugated with HRP detecting the amino acid sequence EQKLISEEDLN of human c-myc protein located at the C-terminal end of the scFv fragment. To generate Syk mutants, targeted mutagenesis was used on GST:Syk 6-242 protein and the binding of G4G11 with the mutants was assessed in the presence of 5 μM of C-13. • 3) Cells, culture conditions and functional tests. […]

COC(=O)c1ccccc1-c1ccc(/C=C2/SC(=S)N(Cc3ccccc3)C2=O)o1 [Molecule C-13, methyl 2-{5-[(3-benzyl-4-oxo-2-thioxo-1,3-thiazolidin-5-ylidene)methyl]-2-furyl}benzoate]
estimated IC50, inhibitory effect on PCA (BALB/c mice [1]): ~25
colour of ears and tail (Evans blue extravasation) in PSA (BALB/c mice [2]; oral administration of 130 mg/kg): light blue colour
hypothermia (drop in body temperature) in PSA (BALB/c mice [2]; single oral dose of 100 mg/kg): inhibited hypothermia
phosphorylation and FcεRI-induced kinase activity of Syk (Syk): did not affect
calcium flow in response to FcεRI binding (RBL-2H3 cells): reduced calcium flow range
